Assay results from patent US8691824B2, “Certain kynurenine-3-monooxygenase inhibitors, pharmaceutical compositions, and methods of use thereof” (CHDI Foundation, Inc., priority 2008, dated 2014).

biological target: T1, KMO mouse enzyme (Mus musculus, UniProt Q91WN4); experiment: L-Kynurenine hydroxylation to 3OH-KYN by LC/MS, mouse liver mitochondrial KMO; type: biochemical; conditions: compound at 10 μM, read-out: INH.Mouse @ 10 μM
T1 construct: KMO enzyme prepared at Evotec from mouse liver (4-6 weeks old) via mitochondria isolation; from tissue; host or cells: mouse liver (4-6 weeks old), mitochondria isolation
Procedure: A method of monitoring L-Kynurenine (KYN) hydroxylation to form 3-Hydroxy-Kynurenine (3OH-KYN) by LC/MS is described. Product is quantified by multiple reaction monitoring (MRM method).
• Compound: Stock concentrations: 10 mM in 100% DMSO • Enzyme: KMO enzyme prepared at Evotec from mouse liver (4-6 weeks old) via mitochondria isolation as described in the literature • Substrate: L-Kynurenine (Sigma: Cat# K3750, stock concentration: 10 mM in 100 mM potassium phosphate buffer, pH 7.4) Assay Conditions: • Buffer: 100 mM potassium phosphate, pH 7.4, 200 μM NADPH, 0.4 U/ml G6P-DH (Glucose 6-phosphate Dehydrogenase), 3 mM G6P (D-Glucose 6-phosphate) • Assay Volume: 40 μl • Plate Format: 384 well plate, transparent (Matrix) • Read-Out: product (3OH-KYN) quantification using product specific MRM • Reader: LC/MS/MS Assay Protocol: • prepare serial dilution (factor 3) of compound in 100% DMSO (top concentration=10 mM, 100% DMSO) • [8 points: 10 mM; 3.33 mM; 1.11 mM; 0.37 mM; 0.12 mM; 0.04 mM; 0.0137 mM; 0.0045 mM, 0.0015 mM] • prepare […] concentrated solution of each compound concentration (top concentration 300 μM, 3% DMSO) in assay buffer • [concentrations: 300 μM; 100 μM; 33.3 μM; 11.1 μM; 3.70 μM; 1.23 μM; 0.41 μM; 0.137 μM] • prepare substrate (10 mM) at concentration of 1 mM in assay buffer • assay mix: 4 μl compound/well of each concentration+24 μl assaybuffer/well+8 μl KMO mouse enzyme+4 μl 1 mM substrate (final concentration=100 μM) • [final compound top concentration: 30 μM; 0.3% DMSO] • [final compound bottom concentration: 0.0137 μM; 0.3% DMSO] • positive control: 4 μl 50 μM FCE28833 in assay buffer, 0.5% DMSO [final assay concentration=5 μM]+24 μl assaybuffer/well+8 μl KMO mouse enzyme+4 μl 1 mM substrate [final concentration=100 μM] • negative control: 28 μl assay buffer/well+8 μl KMO mouse enzyme+4 μl 1 mM substrate [final concentration=100 μM] • incubate 40 min at RT • add 40 μl/well 10% trichloro acetic acid in water to stop the assay and precipitate protein • centrifuge plate for 3 min at 4000 rpm • product detection by LC/MS (injection of 20 μl/well, 2 fold overfill of the 10 μl sample loop) Data Analysis:
IC50's are calculated using automated fitting algorithm (A+Analysis).
Using procedures similar to those described herein, the following compounds were assayed for activity.

T1 sequence (Q91WN4 whole entry): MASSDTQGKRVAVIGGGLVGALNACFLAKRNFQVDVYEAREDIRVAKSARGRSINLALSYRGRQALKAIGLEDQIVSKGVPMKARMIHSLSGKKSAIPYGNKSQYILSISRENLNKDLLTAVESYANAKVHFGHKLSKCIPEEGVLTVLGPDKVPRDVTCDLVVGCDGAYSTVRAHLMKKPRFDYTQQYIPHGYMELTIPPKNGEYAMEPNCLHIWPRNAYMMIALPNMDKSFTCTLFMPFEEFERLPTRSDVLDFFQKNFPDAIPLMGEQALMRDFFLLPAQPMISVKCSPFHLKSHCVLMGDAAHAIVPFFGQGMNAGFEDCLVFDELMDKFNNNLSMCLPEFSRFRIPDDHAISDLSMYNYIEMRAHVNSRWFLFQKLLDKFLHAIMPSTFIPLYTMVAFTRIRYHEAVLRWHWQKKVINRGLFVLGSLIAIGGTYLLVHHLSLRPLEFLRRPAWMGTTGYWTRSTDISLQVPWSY

Q: With `Cc1ncc(NC(=O)CC2CON=C2c2ccc(Cl)c(Cl)c2)cn1` (stereo not drawn) [2-[3-(3,4-Dichloro-phenyl)-4,5-dihydro-isoxazol-4-yl]-N-(2-methyl-pyrimidin-5-yl)-acetamide] as the molecule, how does the inhibition at 10 µM read?
A: 81.2%

Q: With `Cc1cc(NC(=O)CC2CON=C2c2ccc(Cl)c(Cl)c2)on1` (stereo not drawn) [2-[3-(3,4-Dichloro-phenyl)-4,5-dihydro-isoxazol-4-yl]-N-(3-methyl-isoxazol-5-yl)-acetamide] as the molecule, how does the inhibition at 10 µM read?
A: 64%

Q: Which inhibition at 10 µM does the source give for `O=C(CC1CON=C1c1ccc(Cl)c(Cl)c1)Nc1cccnc1` (stereo not drawn) [2-[3-(3,4-Dichloro-phenyl)-4,5-dihydro-isoxazol-4-yl]-N-pyridin-3-yl-acetamide] here?
A: 77.2%

Q: How did the inhibition at 10 µM turn out when `O=C(CC1CON=C1c1ccc(Cl)c(Cl)c1)Nc1cncnc1` (stereo not drawn) [2-[3-(3,4-Dichloro-phenyl)-4,5-dihydro-isoxazol-4-yl]-N-pyrimidin-5-yl-acetamide] was run?
A: 82.7%

Q: With `NC(=O)CC1CON=C1c1ccc(Cl)c(Cl)c1` (stereo not drawn) [2-[3-(3,4-Dichloro-phenyl)-4,5-dihydro-isoxazol-4-yl]-acetamide] as the molecule, how does the inhibition at 10 µM read?
A: 60.4%

Q: Which inhibition at 10 µM does the source give for `O=C(O)CC1CON=C1c1cccc(Cl)c1` (stereo not drawn) [3-(3-Chloro-phenyl)-4,5-dihydro-isoxazol-4-yl]-acetic acid] here?
A: 106%

Q: With `COC(=O)CC1CON=C1c1ccc(Cl)c(Cl)c1` (stereo not drawn) [[3-(3,4-Dichloro-phenyl)-4,5-dihydro-isoxazol-4-yl]-acetic acid methyl ester] as the molecule, how does the inhibition at 10 µM read?
A: 102%

Q: Which inhibition at 10 µM does the source give for `O=C(O)CC1CON=C1c1ccc(Cl)c(Cl)c1` (stereo not drawn) [[3-(3,4-Dichloro-phenyl)-4,5-dihydro-isoxazol-4-yl]-acetic acid] here?
A: 101%

Q: `COC(=O)CC1CC(c2ccc(Cl)c(Cl)c2)=NO1` (stereo not drawn) [[3-(3,4-Dichloro-phenyl)-4,5-dihydro-isoxazol-5-yl]-acetic acid methyl ester] was tested. Which inhibition at 10 µM did it give?
A: 88.4%

Q: With `O=C(O)CC1CC(c2ccc(Cl)c(Cl)c2)=NO1` (stereo not drawn) [[3-(3,4-Dichloro-phenyl)-4,5-dihydro-isoxazol-5-yl]-acetic acid] as the molecule, how does the inhibition at 10 µM read?
A: 93.3%

Q: Which inhibition at 10 µM does the source give for `CC1ON=C(c2ccc(Cl)c(Cl)c2)C1CC(=O)O` (stereo not drawn) [[3-(3,4-Dichloro-phenyl)-5-methyl-4,5-dihydro-isoxazol-4-yl]-acetic acid] here?
A: 84.5%

Q: With `O=C(O)Cc1conc1-c1ccc(Cl)c(Cl)c1` [[3-(3,4-Dichloro-phenyl)-isoxazol-4-yl]-acetic acid] as the molecule, how does the inhibition at 10 µM read?
A: 74.7%

Q: How did the inhibition at 10 µM turn out when `CCOC(=O)Cc1cc(-c2ccc(Cl)c(Cl)c2)no1` [[3-(3,4-Dichloro-phenyl)-isoxazol-5-yl]-acetic acid ethyl ester] was run?
A: 60.8%

Q: Which inhibition at 10 µM does the source give for `COC(=O)Cc1cc(-c2ccc(Cl)c(Cl)c2)no1` [[3-(3,4-Dichloro-phenyl)-isoxazol-5-yl]-acetic acid methyl ester] here?
A: 66.4%

Q: With `O=C(O)Cc1cc(-c2ccc(Cl)c(Cl)c2)no1` [[3-(3,4-Dichloro-phenyl)-isoxazol-5-yl]-acetic acid] as the molecule, how does the inhibition at 10 µM read?
A: 74.5%
